Consider three molecules from publication doi:10.1101/2023.06.17.545066v1 (biorxiv, 2023).

In general, Ki refers to a dissociation constant, usually derived from enzyme kinetics or from competition with a known ligand. The Km is the substrate concentration at which the rate is half of its maximum.

In series [1] the target is T1, EcL-TTD (L-tartrate dehydratase, L-TTDα + L-TTDβ) (Escherichia coli, UniProt P05847+P0AC35).
T1 sequence (P05847 1-303): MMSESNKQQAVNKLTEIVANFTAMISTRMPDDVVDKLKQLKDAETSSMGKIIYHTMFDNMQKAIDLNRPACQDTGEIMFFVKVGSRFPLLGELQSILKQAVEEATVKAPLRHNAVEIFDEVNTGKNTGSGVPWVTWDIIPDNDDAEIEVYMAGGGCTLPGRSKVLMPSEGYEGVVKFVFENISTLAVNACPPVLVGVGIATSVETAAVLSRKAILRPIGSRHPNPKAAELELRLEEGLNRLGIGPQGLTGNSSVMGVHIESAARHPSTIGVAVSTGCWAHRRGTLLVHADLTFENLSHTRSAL
T1 sequence (P0AC35 1-201): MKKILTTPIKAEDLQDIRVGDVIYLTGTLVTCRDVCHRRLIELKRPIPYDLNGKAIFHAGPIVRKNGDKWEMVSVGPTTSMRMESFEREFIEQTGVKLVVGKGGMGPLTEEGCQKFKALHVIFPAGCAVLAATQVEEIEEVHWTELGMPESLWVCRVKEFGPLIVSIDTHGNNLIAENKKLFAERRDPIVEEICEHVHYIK
Nature of the series: coupled malate dehydrogenase/NADH assay at […] nm, inhibition kinetics. It counts as biochemical.

Series [2] addresses T2, MjFH (class-I fumarate hydratase, α + β subunits) (Methanocaldococcus jannaschii, UniProt Q58034+Q58690).
T2 sequence (Q58690 1-285): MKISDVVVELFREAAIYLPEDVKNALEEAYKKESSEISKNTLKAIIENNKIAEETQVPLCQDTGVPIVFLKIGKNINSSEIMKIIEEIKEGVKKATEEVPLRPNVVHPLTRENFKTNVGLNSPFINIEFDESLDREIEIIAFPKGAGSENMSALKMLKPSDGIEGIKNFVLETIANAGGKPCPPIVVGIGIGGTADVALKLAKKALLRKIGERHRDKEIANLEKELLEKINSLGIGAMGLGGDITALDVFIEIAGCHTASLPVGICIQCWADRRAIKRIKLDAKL
T2 sequence (Q58034 1-195): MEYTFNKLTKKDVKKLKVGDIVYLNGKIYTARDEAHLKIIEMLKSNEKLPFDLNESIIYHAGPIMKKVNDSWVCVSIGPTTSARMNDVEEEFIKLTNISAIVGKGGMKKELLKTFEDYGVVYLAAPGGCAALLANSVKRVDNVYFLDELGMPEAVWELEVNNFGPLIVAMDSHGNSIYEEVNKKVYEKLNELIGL
Nature of the series: fumarate formation at […] nm, inhibition kinetics. The series is classed as biochemical.

Substrate in the series “purified protein”: O=C(O)C(O)C(O)C(=O)O
Nature of the series: purified protein. Conditions: 50 mM Tris-HCl pH 7.4, 37 °C, 250 μM NADH, Fe-S reconstituted. It counts as biochemical, Escherichia coli.

For `O=C(O)C[C@H](O)C(=O)O` [S-malate], in series [1], the Ki is 261 ± 29 µM. As to `O=C(O)C(O)C(O)C(=O)O` (stereo not drawn) [meso-tartrate], the figures for the Ki in series [2] and in series [1] were 161 ± 17 µM and 149 ± 14 µM, respectively.

B1: EcL-TTD (L-tartrate dehydratase, L-TTDα + L-TTDβ) (Escherichia coli K-12) (protein)
chain 1: T1 sequence (P05847 1-303)
chain 2: T1 sequence (P0AC35 1-201)
B1: the Km in the series “purified protein” is 190 ± 30 µM.
